Results from the NIST ThermoML archive (doi:10.1021/acs.jced.6b00657).

Assay: xn = mol fraction of the nth substance listed
Details: Liquid, absorption in thin film, x2 = 0

CCn1cc[n+](C)c1.N#C[C-](C#N)C#N [1-ethyl-3-methyl-1H-imidazolium tricyanomethanide] + O=C=O
Details | binary diffusion coefficient [m2/s]
298.15 K, 96 kPa | 3.3e-10
298.15 K, 194 kPa | 2.4e-10
298.15 K, 294 kPa | 2.7e-10
298.15 K, 393 kPa | 2.6e-10
298.15 K, 493 kPa | 2.8e-10
298.15 K, 793 kPa | 3.6e-10
298.15 K, 893 kPa | 3.2e-10
298.15 K, 993 kPa | 3.2e-10
298.15 K, 1293 kPa | 3.9e-10
298.15 K, 1393 kPa | 3.8e-10
298.15 K, 1493 kPa | 4.1e-10
298.15 K, 1793 kPa | 4.4e-10
298.15 K, 1893 kPa | 4.1e-10
298.15 K, 1992 kPa | 4.2e-10
308.15 K, 194 kPa | 2.9e-10
308.15 K, 293 kPa | 3e-10
308.15 K, 393 kPa | 3e-10
308.15 K, 493 kPa | 3e-10
308.15 K, 593 kPa | 3.1e-10
308.15 K, 693 kPa | 3.3e-10
308.15 K, 792 kPa | 3.8e-10
308.15 K, 893 kPa | 3.6e-10
308.15 K, 993 kPa | 3.5e-10
308.15 K, 1093 kPa | 3.6e-10
308.15 K, 1192 kPa | 4.1e-10
308.15 K, 1293 kPa | 3.7e-10
308.15 K, 1393 kPa | 3.9e-10
308.15 K, 1493 kPa | 4.1e-10
308.15 K, 1593 kPa | 3.9e-10
308.15 K, 1693 kPa | 4.1e-10
308.15 K, 1792 kPa | 4.2e-10
308.15 K, 1893 kPa | 4.5e-10
308.15 K, 1993 kPa | 4.1e-10
323.15 K, 194 kPa | 4.4e-10
323.15 K, 294 kPa | 4.8e-10
323.15 K, 394 kPa | 4.4e-10
323.15 K, 494 kPa | 3.9e-10
323.15 K, 593 kPa | 4.1e-10
323.15 K, 692 kPa | 4.1e-10
323.15 K, 793 kPa | 4.4e-10
323.15 K, 892 kPa | 5e-10
323.15 K, 993 kPa | 4.4e-10
323.15 K, 1093 kPa | 4.2e-10
323.15 K, 1193 kPa | 5.3e-10
323.15 K, 1392 kPa | 4.6e-10
323.15 K, 1492 kPa | 4.2e-10
323.15 K, 1593 kPa | 4.2e-10
323.15 K, 1693 kPa | 4.2e-10
323.15 K, 1793 kPa | 5.9e-10
323.15 K, 1993 kPa | 4.9e-10
338.25 K, 94 kPa | 5.1e-10
338.25 K, 194 kPa | 5e-10
338.25 K, 294 kPa | 5.1e-10
338.25 K, 394 kPa | 4.9e-10
338.25 K, 494 kPa | 5.8e-10
338.25 K, 594 kPa | 4.5e-10
338.25 K, 693 kPa | 4.6e-10
338.25 K, 793 kPa | 5.6e-10
338.25 K, 893 kPa | 5.2e-10
338.25 K, 1093 kPa | 5.1e-10
338.25 K, 1192 kPa | 5.2e-10
338.25 K, 1393 kPa | 5.8e-10
338.25 K, 1493 kPa | 4.9e-10
338.25 K, 1592 kPa | 5.1e-10
338.25 K, 1693 kPa | 4.6e-10
338.25 K, 1792 kPa | 5.2e-10
338.25 K, 1993 kPa | 5.4e-10
353.25 K, 95 kPa | 6.1e-10
353.25 K, 294 kPa | 9e-10
353.25 K, 494 kPa | 7.4e-10
353.25 K, 594 kPa | 6.6e-10
353.25 K, 694 kPa | 6.6e-10
353.25 K, 794 kPa | 6.8e-10
353.25 K, 894 kPa | 7.8e-10
353.25 K, 994 kPa | 6.7e-10
353.25 K, 1093 kPa | 6.8e-10
353.25 K, 1192 kPa | 7e-10
353.25 K, 1593 kPa | 7.5e-10
353.25 K, 1693 kPa | 8.2e-10
353.25 K, 1893 kPa | 7.4e-10
353.25 K, 1993 kPa | 7.8e-10

CCCCCCCn1cc[n+](C)c1.N#C[C-](C#N)C#N [1-heptyl-3-methylimidazolium tricyanomethanide] + O=C=O
Details | binary diffusion coefficient [m2/s]
298.15 K, 93 kPa | 2e-10
298.15 K, 193 kPa | 1.6e-10
298.15 K, 293 kPa | 1.7e-10
298.15 K, 393 kPa | 1.9e-10
298.15 K, 492 kPa | 2e-10
298.15 K, 692 kPa | 2.3e-10
298.15 K, 792 kPa | 2.4e-10
298.15 K, 893 kPa | 2.5e-10
298.15 K, 993 kPa | 2.7e-10
298.15 K, 1193 kPa | 3.1e-10
298.15 K, 1293 kPa | 2.9e-10
298.15 K, 1392 kPa | 2.9e-10
298.15 K, 1493 kPa | 3.1e-10
298.15 K, 1693 kPa | 2.8e-10
298.15 K, 1792 kPa | 3.1e-10
298.15 K, 1893 kPa | 3.6e-10
298.15 K, 1993 kPa | 3.5e-10
308.15 K, 94 kPa | 2.6e-10
308.15 K, 194 kPa | 2.3e-10
308.15 K, 294 kPa | 2.4e-10
308.15 K, 394 kPa | 2.8e-10
308.15 K, 493 kPa | 2.8e-10
308.15 K, 593 kPa | 2.9e-10
308.15 K, 693 kPa | 2.7e-10
308.15 K, 993 kPa | 3e-10
308.15 K, 1093 kPa | 3.2e-10
308.15 K, 1192 kPa | 3.4e-10
308.15 K, 1293 kPa | 3.3e-10
308.15 K, 1392 kPa | 3.5e-10
308.15 K, 1493 kPa | 3.6e-10
308.15 K, 1893 kPa | 3.9e-10
308.15 K, 1993 kPa | 4.2e-10
323.15 K, 95 kPa | 3.2e-10
323.15 K, 195 kPa | 4e-10
323.15 K, 294 kPa | 3.8e-10
323.15 K, 394 kPa | 3.5e-10
323.15 K, 494 kPa | 3.8e-10
323.15 K, 594 kPa | 3.9e-10
323.15 K, 692 kPa | 3.2e-10
323.15 K, 793 kPa | 4e-10
323.15 K, 893 kPa | 3.5e-10
323.15 K, 993 kPa | 4.4e-10
323.15 K, 1093 kPa | 4.2e-10
323.15 K, 1192 kPa | 4.4e-10
323.15 K, 1293 kPa | 3.2e-10
338.25 K, 95 kPa | 4.5e-10
338.25 K, 196 kPa | 4.4e-10
338.25 K, 295 kPa | 4.3e-10
338.25 K, 394 kPa | 5.3e-10
338.25 K, 493 kPa | 4.7e-10
338.25 K, 594 kPa | 5.2e-10
338.25 K, 793 kPa | 6.1e-10
338.25 K, 993 kPa | 5.8e-10
338.25 K, 1093 kPa | 5.6e-10
338.25 K, 1292 kPa | 6.5e-10
338.25 K, 1392 kPa | 5.6e-10
338.25 K, 1793 kPa | 5.8e-10
338.25 K, 1893 kPa | 5.6e-10
338.25 K, 1993 kPa | 6.5e-10
353.25 K, 494 kPa | 6.4e-10
353.25 K, 594 kPa | 6.5e-10
353.25 K, 693 kPa | 5.4e-10
353.25 K, 793 kPa | 6e-10
353.25 K, 894 kPa | 6.6e-10
353.25 K, 994 kPa | 7.5e-10
353.25 K, 1094 kPa | 5.7e-10
353.25 K, 1193 kPa | 7.1e-10
